Test results from US9756858B2, “Insecticides” (Syngenta Participations AG, priority 2011, dated 2017).

Experiments:
Assay type in all cases: in vivo
[1] = tested on: Aphis craccivora; test: Activity against Aphis craccivora (mixed population, contact/feeding), comparison with state of the art; conditions: for Death rate (%) after 5 days: pea seedlings, spray
Procedure: Comparison of the Insecticidal Activity of Compounds According to the Invention with the Structurally Closest Compound from the State of the Art (Compound No. 39 Described on Page 66 of WO2009/149858): Example B8: Activity Against Aphis craccivora (mixed population, contact/feeding) Pea seedlings, infested with an aphid population of mixed ages, were treated with diluted test solutions in a spray chamber. […]

[2] = tested on: Plutella xylostella (diamond back moth); test: Plutella xylostella (larvicide, feeding/residual contact, preventive); conditions: 200 ppm; artificial diet, L2 larvae, 5 days incubation
Procedure: Example B3: Plutella xylostella (Diamond Back Moth) (larvicide, feeding/residual contact activity, preventive) 24-well microtiter plate (MTP) with artificial diet was treated with test solutions by pipetting. After drying, the MTP's were infested with larvae (L2) (10-15 per well). After an incubation period of 5 days, samples were checked for larval mortality, antifeedant and growth regulation.

[3] = tested on: Tetranychus urticae (two-spotted spider mite); test: Activity against Tetranychus urticae (mixed population, feeding/residual contact, preventive); conditions: foliar, 192 h, bean leaf discs, 8 days
Excerpt: Example B7: Activity Against Tetranychus urticae (Two-Spotted Spider Mite) (mixed population, feeding/residual contact activity, preventive) Bean leaf discs on agar in 24-well microtiter plates are sprayed with test solutions. After drying, the leaf discs are infested with mite populations of mixed ages. 8 days later, discs are checked for egg mortality, larval mortality, and adult mortality.

[4] = tested on: Myzus persicae (green peach aphid); test: Activity against Myzus persicae (mixed population, feeding/residual contact, preventive); conditions: foliar, 144 h, sunflower leaf discs, 6 days incubation
Procedure: Example B4: Activity Against Myzus Persicae (Green Peach Aphid) (mixed population, feeding/residual contact activity, preventive) Sunflower leaf discs were placed on agar in a 24-well microtiter plate and sprayed with test solutions. After drying, the leaf discs were infested with an aphid population of mixed ages. After an incubation period of 6 days, samples were checked for mortality and special effects (e.g. phytotoxicity).

[5] = tested on: Myzus persicae (green peach aphid); test: Activity against Myzus persicae (mixed population, systemic/feeding, curative); conditions: 144 h, roots of pea seedlings in test solution, 6 days
Excerpt: Example B5: Activity Against Myzus persicae (Green Peach Aphid) (mixed population, systemic/feeding activity, curative) Roots of pea seedlings, infested with an aphid population of mixed ages, were placed directly in the test solutions. 6 days after introduction, samples were checked for mortality and special effects on the plant.

[6] = tested on: Spodoptera littoralis (Egyptian cotton leafworm); test: Activity against Spodoptera littoralis (larvicide, feeding/residual contact, preventive); conditions: 200 ppm; cotton leaf discs, L1 larvae, 3 days after treatment
Excerpt: Example B1: Activity Against Spodoptera littoralis (Egyptian Cotton Leafworm) (larvicide, feeding/residual contact activity, preventive) Cotton leaf discs were placed on agar in a 24-well microtiter plate and sprayed with test solutions. After drying, the leaf discs were infested with 5 L1 larvae. The samples were checked for mortality, repellent effect, feeding behaviour, and growth regulation 3 days after treatment.

SMILES	pest or weed control at 200 ppm [4] [%]	also measured
Cc1nc(-c2cccnc2)sc1C(=O)NCC(F)(F)F [Comp. 39, reference compound]	–	Death rate (%) after 5 days ([1]; 3 ppm): 35%; Death rate (%) after 5 days ([1]; 12.5 ppm): 85%; Death rate (%) after 5 days ([1]; 25 ppm): 99%; Death rate (%) after 5 days ([1]; 50 ppm): 99%
Clc1csc(C2C=CC=NC2c2sc(-c3cccnc3)nc2Cl)n1 (centres unmarked) [Compound 1.001]	–	activity [2]: over 80%; pest or weed control at 200 ppm [3]: > 80%
O=C(NCC(F)(F)F)c1sc(-c2cccnc2)nc1Cl [Compound 1.005]	> 80	Death rate (%) after 5 days ([1]; 3 ppm): 0%; Death rate (%) after 5 days ([1]; 12.5 ppm): 0%; Death rate (%) after 5 days ([1]; 25 ppm): 30%; Death rate (%) after 5 days ([1]; 50 ppm): 90%; insecticidal action on Aphis craccivora compared with the compound from the state of the art ([1]; comparison with Comp. 39, especially at 25, 12.5 and 3 ppm): substantially better insecticidal action
O=C(NC1CSC1)c1sc(-c2cccnc2)nc1Cl [Compound 1.007]	> 80	pest or weed control at 24 ppm [5]: > 80%
Clc1cccc(-c2sc(-c3cccnc3)nc2Cl)n1 [Compound 1.011]	> 80	–
CS(=O)(=O)c1ccc(CNC(=O)c2sc(-c3cccnc3)nc2Cl)cc1 [Compound 1.021]	> 80	–
O=C(NCC1CCCO1)c1sc(-c2cccnc2)nc1Cl (centres unmarked) [Compound 1.026]	> 80	–
O=C(NCc1ccc2c(c1)OCCO2)c1sc(-c2cccnc2)nc1Cl [Compound 1.038]	> 80	–
CC(=O)NCCNC(=O)c1sc(-c2cccnc2)nc1Cl [Compound 1.039]	> 80	–
O=C(Nc1cccc2ncccc12)c1sc(-c2cccnc2)nc1Cl [Compound 1.053]	> 80	–
Cc1cc(NC(=O)c2sc(-c3cccnc3)nc2Cl)n(C)n1 [Compound 1.069]	> 80	–
Cc1cc(O)nc(NC(=O)c2sc(-c3cccnc3)nc2Cl)n1 [Compound 1.072]	> 80	–
O=C(Nc1ccc(Oc2ccccc2)nc1)c1sc(-c2cccnc2)nc1Cl [Compound 1.079]	> 80	–
O=C(NC1CS(=O)(=O)C1)c1sc(-c2cccnc2)nc1Cl [Compound 1.085]	> 80	–
CSCC(C)(C)NC(=O)c1sc(-c2cccnc2)nc1Cl [Compound 1.086]	> 80	pest or weed control at 24 ppm [5]: > 80%
O=C(NC1CCSC1)c1sc(-c2cccnc2)nc1Cl (centres unmarked) [Compound 1.088]	> 80	pest or weed control at 24 ppm [5]: > 80%
O=C(NC1C[S+]([O-])C1)c1sc(-c2cccnc2)nc1Cl (centres unmarked) [Compound 1.089]	> 80	–
O=C(NC1C[S+]([O-])C1)c1sc(-c2cccnc2)nc1Cl (centres unmarked) [Compound 1.090]	–	pest or weed control at 24 ppm [5]: > 80%
CCN1OCC(NC(=O)c2sc(-c3cccnc3)nc2Cl)C1=O (centres unmarked) [Compound 1.093]	–	pest or weed control at 24 ppm [5]: > 80%
O=C(NCCC1CS(=O)(=O)C1)c1sc(-c2cccnc2)nc1Cl [Compound 1.094]	> 80	–
O=C(NC1CON(CC(F)(F)F)C1=O)c1sc(-c2cccnc2)nc1Cl (centres unmarked) [Compound 1.095]	> 80	pest or weed control at 24 ppm [5]: > 80%
O=C(c1sc(-c2cccnc2)nc1Cl)N1CCC[C@H]1COc1c(Cl)cc(Cl)cc1Cl [Compound 1.096]	–	pest or weed control at 200 ppm [3]: > 80%

SMILES	pest or weed control at 200 ppm [4] [%]	also measured
C[C@@H](NC(=O)c1sc(-c2cccnc2)nc1Cl)C(F)(F)F [Compound 1.100]	> 80	–
O=C(NC1(C2CC2)CC1)c1sc(-c2cccnc2)nc1Cl [Compound 1.119]	> 80	–
CON1CCC(NC(=O)c2sc(-c3cccnc3)nc2Cl)CC1 [Compound 1.120]	> 80	pest or weed control at 24 ppm [5]: > 80%
CN(Cc1ccc(Cl)nc1)C(=O)c1sc(-c2cccnc2)nc1Cl [Compound 1.124]	–	pest or weed control at 200 ppm [3]: > 80%
COCC#CC(C)(C)NC(=O)c1sc(-c2cccnc2)nc1Cl [Compound 1.130]	> 80	–
CC(C)(NC(=O)c1sc(-c2cccnc2)nc1Cl)C(=O)c1ccc(Cl)cc1 [Compound 1.131]	–	pest or weed control at 200 ppm [3]: > 80%
CC(C)(NC(=O)c1sc(-c2cccnc2)nc1Cl)C(=O)c1cccc(Br)c1 [Compound 1.132]	–	pest or weed control at 200 ppm [3]: > 80%
COC(=O)c1ccc(NC(=O)c2sc(-c3cccnc3)nc2Cl)nc1 [Compound 1.138]	–	pest or weed control at 200 ppm [3]: > 80%
CCCCNC(=O)c1sc(-c2cccnc2)nc1Cl [Compound 1.142]	> 80	–
CC1(NC(=O)c2sc(-c3cccnc3)nc2Cl)CSC1 [Compound 1.143]	–	pest or weed control at 24 ppm [5]: > 80%
O=C(NC1CCC1)c1sc(-c2cccnc2)nc1Cl [Compound 1.144]	> 80	–
C[S+]([O-])CCNC(=O)c1sc(-c2cccnc2)nc1Cl (centres unmarked) [Compound 1.145]	> 80	pest or weed control at 24 ppm [5]: > 80%
CSCCNC(=O)c1sc(-c2cccnc2)nc1Cl [Compound 1.146]	> 80	pest or weed control at 24 ppm [5]: > 80%
O=C(NCC1CCS1)c1sc(-c2cccnc2)nc1Cl (centres unmarked) [Compound 1.147]	> 80	pest or weed control at 24 ppm [5]: > 80%
O=C(NCCC1CSC1)c1sc(-c2cccnc2)nc1Cl [Compound 1.148]	> 80	pest or weed control at 24 ppm [5]: > 80%
CC(C)(C)NC(=O)c1sc(-c2cccnc2)nc1Cl [Compound 1.149]	> 80	–
COCC(C)(C#N)NC(=O)c1sc(-c2cccnc2)nc1Cl (centres unmarked) [Compound 1.150]	> 80	–
C#CC(C)(C)NC(=O)c1sc(-c2cccnc2)nc1Cl [Compound 1.152]	> 80	–
CC#CC(C)(C)NC(=O)c1sc(-c2cccnc2)nc1Cl [Compound 1.153]	> 80	–
COC(c1ccc(Cl)cc1Cl)C(C)NC(=O)c1sc(-c2cccnc2)nc1Cl (centres unmarked) [Compound 1.156]	–	activity [6]: over 80%; pest or weed control at 200 ppm [3]: > 80%
COc1cc(-c2sc(-c3cccnc3)nc2Cl)nc(OC)n1 [Compound 1.160]	–	pest or weed control at 200 ppm [3]: > 80%
